Test results: US10913781B2, “Pepducin design and use” (Tufts Medical Center, Inc., priority 2011, dated 2021)
Peptide text beside a SMILES is read from it. * marks the point of attachment. Palmitoyl = CCCCCCCCCCCCCCCC(=O)*

Legend:
PAR1 [1] = biological target: T1, PAR1 (Homo sapiens, UniProt P25116); assay: Calcium flux in SW620 cells stably transfected with PAR1, TFLLRN stimulus; assay type: cell-based; settings: 30 μM TFLLRN
T1 sequence (P25116 22-425): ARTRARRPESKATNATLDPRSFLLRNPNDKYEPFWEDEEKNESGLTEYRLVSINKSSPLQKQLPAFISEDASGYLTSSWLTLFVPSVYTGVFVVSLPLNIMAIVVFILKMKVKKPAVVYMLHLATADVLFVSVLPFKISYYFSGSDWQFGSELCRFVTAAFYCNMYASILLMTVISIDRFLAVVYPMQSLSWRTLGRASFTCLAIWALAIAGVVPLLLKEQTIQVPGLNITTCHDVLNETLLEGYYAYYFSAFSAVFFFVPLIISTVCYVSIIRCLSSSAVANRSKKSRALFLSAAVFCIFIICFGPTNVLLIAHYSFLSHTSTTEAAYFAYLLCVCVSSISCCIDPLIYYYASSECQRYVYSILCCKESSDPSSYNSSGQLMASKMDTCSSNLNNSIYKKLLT
Procedure: (§1) (A) PAR2 antagonist pepducins P2pal-18S and P2pal-14GQ inhibit calcium flux induced by PAR2 (SLIGRL) (SEQ ID NO:4) but not PAR1 (TFLLRN) (SEQ ID NO:2) agonists. SW620 cells were stably transfected with PAR1 and pretreated for 1 min with various concentrations of P2pal-18S or P2pal-14GQ and then stimulated with 30 μM PAR agonist. […] Cells were stimulated with 1 μM TFLLRN (SEQ ID NO:2), 1 μM SLIGRL (SEQ ID NO:4) or 100 μM AYPGKF (SEQ ID NO:5) and [^3H]-InsP formation measured over 30 min. (C) SW620 cells were treated with the indicated concentrations of P2pal-18S or P2pal-14GQ in the upper well of an 8-μm pore Boyden chamber and allowed to migrate for 18 h towards 10 μM of the PAR2 specific agonist SLIGRL in the lower chamber. The migration to RPMI/0.1% FBS represents random migration. (D) Migration of HEK cells transiently transfected with PAR2 (wild-type, WT), or PAR2-R36A/PAR2-RQ toward chemotactic gradients of 30 nM trypsin in the absence or presence of the indicated concentration of P2pal-18S for 18 h in a transwell apparatus ([…]). Data (n=2-4) are mean±SEM. *, P<0.05 and **, P<0.005.

PAR1 [2] = biological target: T1, PAR1; assay: Human neutrophil chemotaxis to TFLLRN; assay type: cell-based; parameters: endogenous in cells; settings: 10 μM TFLLRN
Procedure: (A) Human neutrophils (n=4 normal volunteers) were analyzed for surface expression of human PAR1, PAR2, and PAR4 by flow cytometry with PAR-specific antibodies. […] Chemotaxis index is the ratio of directed versus random migration over 30 min through a 5-μm pore filter.
P2pal-18S had no effect on PAR1-dependent platelet aggregation (FIG. 5A). Neither P2pal-18S nor P2pal-14GQ caused membrane disruption or apoptosis as assessed by propidium iodide uptake in SW620 cells with up to 30 μM concentrations of pepducin (FIG. 5B).

PAR1 [3] = biological target: T1, PAR1; assay: [3H]-InsP formation in COS7 cells transfected with PAR1; assay type: cell-based; parameters: expressed in transfected cells; host or cells: COS7; settings: 1 μM TFLLRN, 30 min
Procedure: as §1

[4] = Pharmacokinetics of PAR1 pepducins in CF-1 mice, plasma LC/MS/MS; assay type: in vivo, mouse; parameters: Peak plasma level: unit not given here; settings: 10 mg/kg s.c.
Procedure: FIG. 14 illustrates pharmacokinetics of PAR1 pepducins. (A): CF-1 mice were injected subcutaneously with P1pal-7 (3 mg/kg, open circles), P1pal-7 (10 mg/kg, closed circles), P1pal-10S (10 mg/kg, gray circles), or P1pal-i1-11 (10 mg/kg, open squares) in 20% dimethyl sulfoxide and blood was collected at indicated time points (n=3). Pepducin levels in plasma were quantified with LC/MS/MS. (B): Daily (D1 to D6) plasma levels of P1pal-7 after subcutaneous injection of 10 mg/kg P1pal-7 were measured at 1 hour (open circles) and 24 hours (open squares).
Pharmacokinetics of plasma levels of P1pal-7, P1pal-10S, and P1pal-i1-11 at 30 minutes, and at 1, 2, 4, 6, 8, and 16 hours was measured by LC/MS/MS to determine steady-state pepducin drug levels and the rate of elimination from mice. Subcutaneous injections of P1pal-7 (3 mg/kg or 10 mg/kg) into wild-type CF-1 mice (25 to 30 g) was followed by blood collection at various time points from the vena cava. […] Residual P1pal-7 levels were 10 nmol/L at the 16-hour time point. After the 4-hour plateau, the elimination rate was linear from 4 to 16 hours. The peak plasma level of 3 mg/kg P1pal-7 reached 0.6 μmol/L at 2 hours and elimination was linear between 2 hours and 16 hours. P1pal-10S (10 mg/kg) gave similar peak plasma level of 1.0 μmol/L as P1pal-7 (10 mg/kg) at 1 hour.
Lastly, the peak plasma level of P1pal-7 (10 mg/kg) was measured before and 1 hour after once-daily subcutaneous injection over 6 days to determine whether the peak plasma levels were consistent on daily administration.

| Inhibition of PAR1 calcium flux (PAR1 [1]) | Antagonist activity, neutrophil chemotaxis, PAR1 (PAR1 [2]) | Inhibition of InsP signaling from PAR1 (PAR1 [3]) | Clearance / plasma half-life in words [4] | Peak plasma level ([4]; between 0.5 and 8 hours) | SMILES |
| --- | --- | --- | --- | --- | --- |
| did not inhibit | no antagonist activity | do not inhibit |  |  | CCCCCCCCCCCCCCCC(=O)N[C@@H](CCCNC(=N)N)C(=O)N[C@@H](CO)C(=O)N[C@@H](CO)C(=O)N[C@@H](C)C(=O)N[C@@H](CCSC)C(=O)N[C@@H](CC(=O)O)C(=O)N[C@@H](CCC(=O)O)C(=O)N[C@@H](CC(N)=O)C(=O)N[C@@H](CO)C(=O)N[C@@H](CCC(=O)O)C(=O)N[C@@H](CCCCN)C(=O)N[C@@H](CCCCN)C(=O)N[C@@H](CCCNC(=N)N)C(=O)N[C@@H](CCCCN)C(=O)N[C@@H](CO)C(=O)N[C@@H](C)C(=O)N[C@H](C(=O)N[C@@H](CCCCN)C(N)=O)[C@@H](C)CC [P2pal-18S] |
|  |  |  | sustained plasma half-life | 5.0 | CCCCCCCCCCCCCCCC(=O)N[C@H](C(=O)N[C@@H](CC(C)C)C(=O)N[C@@H](CCCCN)C(=O)N[C@@H](CCSC)C(=O)N[C@@H](CCCCN)C(=O)N[C@H](C(=O)N[C@@H](CCCCN)C(=O)N[C@@H](CCCCN)C(=O)N1CCC[C@H]1C(=O)N[C@@H](C)C(=O)N[C@H](C(N)=O)C(C)C)C(C)C)[C@@H](C)CC [P1pal-i1-11] (Palmitoyl-ILKMKVKKPAV-NH2) |
